Test results reported in patent publication US8193248B2, “Contraceptive composition” (Starpharma Pty Limited, priority 2006, dated 2012).

Legend:
[1] = system: herpes simplex virus type 2 (HSV-2); conditions: previous studies, cited from earlier work
[2] = system: motile sperm (normal semen sample); test: modified Sander-Cramer Assay, spermicidal activity; format: cell-based; conditions: control; 30 seconds at room temperature
Method: This assay determines the sperm-immobilising minimum effective concentration (MEC).
Serial two-fold dilutions were prepared from stock solutions at 2% (for water soluble compounds) or 4% (for water insoluble compounds). 250 μL of each dilution were mixed with […] of a normal semen sample containing 60×10^6 motile sperm/mL. Normality of the semen samples was assessed with the aid of a CASA system (Hamilton-Thorne, IVOS; Beverly, Mass.). Semen and compound aliquots were microscopically examined while incubating at room temperature for 30 seconds. If any motile spermatozoon were found, either in the initial examination or after one hour incubation in medium, that dilution was labelled as “failed”. The MEC for a given compound was calculated using the highest dilution that induces total sperm immobilization. 6 to 10 semen samples were used to obtain more reliable results. N9 (MEC=˜0.1-0.2 mg/mL) and solvents were run as control.

Nonoxynol-9 [N9]
animals infected with HSV-2 [1]: 29 out of 42 | relative susceptibility to HSV-2 infection vs control animals ([1]; effective ID of low-dose inoculum in test mice / ID in controls): 29.7 times | sperm-immobilising minimum effective concentration (MEC) [2]: 0.1 to 0.2 mg/mL
